This is an account of results in patent publication US8481459B2, “Chemical inhibitors of ethylene biosynthesis” (Academia Sinica, priority 2010, dated 2013).

“Also recorded” adds a separate entry of the source.

This assay deals with etiolated eto1-4 seedlings. The assay can be described thus: Triple response phenotype / hypocotyl length of etiolated eto1-4 seedlings. The assay is classed as in vivo, Arabidopsis thaliana. The conditions noted are these: for ranking in both hypocotyl length and ethylene level assays / suppression of the eto1-4 (triple response) phenotype: 10 μM; for ranking in both hypocotyl length and ethylene level assays: etiolated eto1-4, FIG. 3; for suppression of the eto1-4 (triple response) phenotype: germinated in the dark for 3 days; for effectiveness in phenotypical assay: etiolated eto1-4 seedlings; for concentration at which hypocotyl elongation becomes visible / concentration reaching maximal / nearly saturated effect on hypocotyl: eto1-4, 3 days in the dark, dose series. The procedure: All mutants and transgenic plants were derived from the wild-type Arabidopsis thaliana Columbia ecotype (Col-0) and cultivated under a long-day condition (16-h light/8-h dark at 22° C.) under exemplary e light (100-150 μE m^−2 s^−1). A reporter construct, 5×EBS::LUC (a generous gift from Drs. Hai Li and Anna N. Stepanova, Salk Institute, USA), containing 5 copies of EIN3 binding sequence (EBS) fused with luciferase gene (LUC) was transformed to eto1-4 and subsequently used for screening compounds of a chemical library. Ethylene mutants eto1-4, eto2-1, ctr1-1 and the EIN3 overexpression line (35S::EIN3) were described previously (Solano, et al. (1998) Genes Dev 12, 3703-3714). Seeds were sterilized with 30% bleach for 6 min and sown in half-strength Murashige and Skoog (0.5×MS) medium supplemented with 0.8% agar and stratified in the dark at 4° C. for 3-4 days before germination. For analysis of the triple response phenotype, stratified seeds were grown in the dark at 22° C. for 3 days before scoring the phenotype.
A DIVERSet library (ChemBridge Inc.) containing 10,000 small molecules (in DMSO) was used for chemical screening. Three rounds of chemical screenings were carried out in 0.5×MS agar medium containing individual chemicals in each well of 96- and 24-well micro-titer plates. The initial screening was performed by sowing 10 to 15 seeds in the wells of micro-titer plates containing small molecules at 50 μM to score the long-hypocotyl phenotype. For the second and third screenings, we used 25 μM of small molecules selected from the first round of screening to score and confirm the phenotype. The seedling phenotype was scored by use of a digital camera attached to a Zeiss stereomicroscope (SteREO V8), and quantitation of hypocotyl length was performed by use of NIH Image J software. AVG and silver thiosulfate (STS, by mixing silver nitrate and sodium thiosulfate at a 1:4 molar ratio immediately before use) were obtained from Sigma and used as controls to suppress ethylene biosynthesis and perception, respectively. Agar medium was supplemented with 1-aminocyclopropane-1-carboxylic acid (10 μM, Merck) to induce the triple response in etiolated seedlings.
Shortened hypocotyls in etiolated seedlings is one of the triple response phenotypes (Guzman, et al. (1990) Plant Cell 2, 513-523; Wang, et al. (2004) Nature 428, 945-950). Two chemical compounds negating ethylene response, AVG and STS, were included as a control for comparison.

Turning to `CC1(C)CC(=O)c2cnc(NC3CCCC3)nc2C1` [Compound 9393], the “ranking in both hypocotyl length and ethylene level assays” value (shortened to “ranking”) was “most effective”; the “suppression of the eto1-4 (triple response) phenotype” value (shortened to “suppression”) is given as “Suppression; also recorded: effectiveness comparable to that of silver nitrate”; the “effectiveness in phenotypical assay” value was “highly effective”.
With `COc1ccc(C2CC(=O)c3cnc(Nc4ccccc4)nc3C2)cc1` (stereo not shown) [Compound 7303], the “ranking” value is on record as “most effective”; the “suppression” value is “Suppression; also recorded: effect comparable to that of compounds 9393 and 9370”; the “effectiveness in phenotypical assay” value is listed as “highly effective; also recorded: the most effective”; the “concentration at which hypocotyl elongation becomes visible” value turned out to be 0.1 µM. Also, the “concentration reaching maximal / nearly saturated effect on hypocotyl” value is 5 µM.
Turning to `Cc1ccc(C2CC(=O)c3cnc(NC4CCCC4)nc3C2)cc1` (stereo not shown) [Compound 9370], the “ranking” value is recorded as “most effective”; the “suppression” value was “Suppression; also recorded: effectiveness comparable to that of silver nitrate”; the “effectiveness in phenotypical assay” value is on record as “highly effective”; the “concentration at which hypocotyl elongation becomes visible” value is 0.1 µM. Further, the “concentration reaching maximal / nearly saturated effect on hypocotyl” value is 5 µM.
